The values that follow come from patent publication US20260258333A1, “MULTI-ORGAN "BODY ON A CHIP" APPARATUS UTILIZING A COMMON MEDIA” (Wake Forest University Health Sciences, priority 2016, published 2026).

The conditions of data set [1]: marketed use in patients; cited from earlier work.
Data set [2] deals with cardiac organoids, 2D iPS-derived cardiomyocytes, 2D C2C12.
Text: (§4) Comparison of ATP activity in response to drug screens of FDA-recalled drugs between 3D liver and cardiac organoids, 2D hepatocyte and cardiomyocyte cultures, and 2D HepG2 and C2C12 cell line cultures. Panels a-d) ATP activity of liver organoids, 2D primary human hepatocytes, and 2D hepG2 cell line cultures in response to panel a) troglitazone, panel b) mibefradil, panel c) bromfenac, and panel d) tielinic acid. Panels e-i) ATP activity of cardiac organoids, 2D iPS-derived cardiomyocytes, and 2D C2C12 cell line cultures in response to panel e) astemizole, panel f) pergoglide, panel g) terodiline, panel h) rofecoxib, and panel i) valdecoxib. Comparisons between groups were normalized to the no drug baseline ATP activity levels. Statistical significance: *p<0.05, 3D organoids versus both 2D cultures; #p<0.05, 2D hepatocytes/cardiomyocytes versus both 3D organoids and 2D cell lines; $ p<0.05, 2D cell line versus both 3D organoids and 2D hepatocytes/cardiomyocytes.
(§5) In comparison to 3D organoid systems, we also screened these drugs using 2D primary hepatocyte and iPS cardiomyocyte cultures, and 2D hepg2 hepatoma cells and C2C12 myoblast cultures. […] In order to allow comparisons between the different cell model form factors, which employed different numbers of cells (liver organoids—1500; cardiac organoids—2500; 2D hepatocytes—20000; 2D cardiomyocytes—12500; HepG2 and C2C12 cultures—20000), ATP levels were normalized to no drug baseline levels.
In data set [3] the test system is cardiac organoids. The protocol: FIG. 14. […] Panel a) Beating output under baseline conditions, from which beating rate is determined. Panels b-e) Change in cardiac organoid beat rate resulting from exposure to panel b) isoproterenol, or panel c) quinidine. Panels d-e) Cardiac organoid response to epinephrine and propranolol.
FIG. 19. Assessment of cardiac organoid beating kinetics in response to panel a) astemizole, panel b) pergoglide, and panel c) terodiline.
It should be noted that most drugs that are recalled for causing cardiac toxicity are not actually recalled due to cardiac cell death, but rather for causing changes in cardiac function, such as beating kinetics. While 2D cardiomyocyte cultures can maintain beating activity, consistency and reproducibility can be difficult to maintain. […] These facts make it more difficult to compare beating kinetics between these cell model types.

The subject of data set [4] is cardiac organoids. Conditions: preliminary results, FIG. 22.
Experimental: Following compound exposures, organoids were assessed for viability with LIVE/DEAD staining or ATP activity.
The test system of data set [5] is liver organoids. In words: Liver on a chip: acetaminophen toxicity and N-acetyl-L-cysteine countermeasure. The format is cell-based, human. To be noted: for albumin and urea output into media: APAP 1 or 10 mM, NAC 20 mM with 10 mM APAP. As to the method:
FIG. 13. […] Viability as determined by LIVE/DEAD staining on day 14. Organoids were exposed to panel a) a 0 mM APAP control, panel b) 1 mM APAP, panel c) 10 mM APAP, or panel d) 10 mM APAP with 20 mM N-acetyl-L-cysteine. Green—Calcein AM-stained viable cells; Red—Ethidium homodimer-stained dead cells. […] Quantification of panel e) human albumin, panel f) urea, panel g) lactate dehydrogenase, and panel h) alpha-GST. […] Statistical significance: *p<0.05 between control and APAP; # p<0.05 APAP+NAC and APAP.

Data set [6] relates to cardiac organoids, 2D iPS-derived cardiomyocytes, 2D C2C12. In words: ATP activity, 3D cardiac organoids versus 2D iPS cardiomyocyte and 2D C2C12 cultures.
Text: as §4, §5
Data set [7] relates to cardiac organoids downstream of liver construct. The source says:
(§1) In the human body, organs interact with one another in complex ways. […] The modular nature of the fluidic system was employed to construct such a platform. Real-time visual monitoring of cardiac organoids was achieved using an onboard LED and camera system that was customized to integrate with the cardiac construct microreactor housing (FIG. 6, panel a) ^32. This system allowed real time video capture (FIG. 6, panel b). Using custom written MatLab code with a series of MatLab functions, moving pixels in each frame were determined against time, generating a binary representation of beat propagation (FIG. 6, panel c) and plots visualizing beating rates.
(§2) Effects of epinephrine and propranolol were first tested independently with a cardiac-only system or the tandem system, before being tested jointly in both systems.
(§3) Next, the interplay between both drugs in the cardiac-only and tandem systems was assessed. […] Beating plots for each condition are depicted in FIG. 6, panels f-i.

Data set [8] has as its system cardiac organoids.
Text: as §1, §2, §3
This is another data set of the same source.

Data set [9] has as its system liver organoids, 2D primary human hepatocytes, 2D HepG2. In words: ATP activity, 3D liver organoids versus 2D hepatocyte and 2D HepG2 cultures. The format is cell-based. To be noted: ATP normalized to no drug baseline.
Text: as §4, §5
The next data set has as its system vascular endothelium. Conditions: confluent monolayers, 100 μM histamine from 20 min, at 45 min; 50-90 RFUs before histamine.
Data set [10] has as its system vascular endothelium (human umbilical vein endothelial cells). To be noted: 100 μM histamine, constant for 10 minutes; normal media about 0.54 kΩ.
Text: The goal of our work was to develop a highly functional microfluidic perfusion-driven six-tissue body-on-a-chip system, containing representations of liver, heart, vasculature, lung, testes, and colon (FIG. 1, panels A-B). Importantly, these individual tissue types would be constructed in modular microfluidic hardware devices, or microreactors (FIG. 1, panel B), formed by conventional polydimethyl-siloxane (PDMS) soft lithography and molding, ^11,30,31 allowing simple “plug and play” capabilities for platform initialization. […] Because of the specific individual requirements of each type of tissue model, a toolbox of biofabrication techniques was employed to create each tissue model (FIG. 1, panels C-E). Briefly, using hanging drop methodology, spherical liver organoids were formed with primary human hepatocytes, stellate cells, and Kupffer cells, spherical cardiac organoids and testes organoids were formed using human induced pluripotent stem (iPS) cells. These spherical organoids were then bioprinted (FIG. 7) into the microreactors using a liver ECM-derived bio-ink, a fibrin and gelatin bio-ink, and a hyaluronic acid (HA) and gelatin bio-ink, employing crosslinking of the hydrogel bio-inks to immobilize the organoids as larger hydrogel-organoid constructs within the perfusion system. […]
Data set [11] deals with liver, cardiac, lung, testis, and brain organoids.
Experimental: A microfluidic platform having a miniaturized footprint and fluid volume was prepared and it was assessed whether the same complex drug studies are possible on this platform.
As with the full-scale platform described in Example 4, five tissue constructs were initiated containing liver, cardiac, lung, testis, and brain organoids and maintained for 7 days prior to the start of the drug study. At this point, the liver modules were removed from half of the platforms. Capecitabine (20 uM) was administered to all platforms after which viability was assessed through live/dead staining or cardiac beating behavior after 7 days of exposure (day 14 of total study).
Data set [12] shares this test system. The source holds these as a separate data set.
Experimental: Aim of Experiment: To assess dependence of multi organoid toxicity on liver organoid metabolic function.
At this point, the liver modules were removed from half of the platforms. Capecitabine (20 μM) was administered to all platforms after which viability was assessed through live/dead staining or cardiac beating behavior after 7 days of exposure (day 14 of total study).
Data set [13] has as its system liver organoids. The data set is described as follows: LIVE/DEAD staining of 3D liver organoids, FDA-recalled drug screen. It counts as cell-based, human. To be noted: increasing drug concentration (troglitazone 0-3 μM, mibefradil 0-100 μM). An excerpt: Unfortunately, many drugs have made it through preclinical studies and clinical trials, after which they existed on the market, for years in some cases, before being recalled by the Food and Drug Administration (FDA) for having toxic effects in humans. […] These include liver toxins troglitazone, mibefradil, bromfenac, and tienilic acid, as well as cardiac toxins, astemizole, pergoglide, terodiline, rofecoxib, and valdecoxib.

Read-outs that look alike come from different tables or passages of the source.

`COc1ccc(CCN2CCC(Nc3nc4ccccc4n3Cc3ccc(F)cc3)CC2)cc1` [Astemizole]: the “Site of Primary Toxicity” value in data set [1] is given as “Heart”. The “sensitivity by ATP activity, 3D cardiac organoids compared to the 2D systems” value (“sensitivity … compared to the 2D systems” below) in [2] is given as “significantly more sensitive”. Besides, the “beating kinetics of 3D cardiac organoids” value in the data set on cardiac organoids [3] is on record as “detrimental changes in beating kinetics”.

Take `[Cl][Pb][Cl]` [lead, lead chloride]: the ATP activity entry with cardiac organoids [4] is “decreases in ATP activity”.

For `CC(=O)Nc1ccc(O)cc1` [APAP, acetaminophen], the “albumin and urea output into media” value in the data set with liver organoids [5] is on record as “negatively affected”. Also, in the data set on liver organoids [5] (APAP treatment), the “LDH and alpha-GST in media” value is “elevated levels”.

As to `CCCN1C[C@H](CSC)C[C@@H]2c3cccc4[nH]cc(c34)C[C@H]21` [Pergoglide], the “Site of Primary Toxicity” value in data set [1] was “Heart”. For the same molecule, the “sensitivity … compared to the 2D systems” value in data set [2] is given as “significantly more sensitive”. In the data set on cardiac organoids [3], the “beating kinetics of 3D cardiac organoids” value is reported as “detrimental changes in beating kinetics”.

For the molecule `O=[N+]([O-])[O-].[Tl+]` [thallium, thallium nitrate], the ATP activity result in the data set on cardiac organoids [4] was “decreases in ATP activity”.

For the molecule `Cc1onc(-c2ccccc2)c1-c1ccc(S(N)(=O)=O)cc1` [Valdecoxib], the “Site of Primary Toxicity” value in [1] is “Heart”. In data set [2], the “sensitivity by ATP activity, 2D cardiomyocyte cultures compared to 3D organoids and 2D C2C12 cultures” value is listed as “increased sensitivity”.

Take `CC(CC(c1ccccc1)c1ccccc1)NC(C)(C)C` (centres unmarked) [Terodiline]: in [1], the “Site of Primary Toxicity” value is “Heart”. Besides, the “sensitivity … compared to the 2D systems” value in data set [6] (only at the highest concentration of 100 μM) is recorded as “slightly more sensitive”. Besides, the “beating kinetics of 3D cardiac organoids” value in the data set on cardiac organoids [3] was “detrimental changes in beating kinetics”.

For `CC(C)NCC(O)COc1cccc2ccccc12` (centres unmarked) [propranolol], the “change in beating rate” value in [7] (propranolol only, 0.1 μM, liver construct present) is “no decrease in beating rate”. In the data set on cardiac organoids [8] (Group 1, no liver organoids, 0.1 μM propranolol first), the “effect of propranolol on response to 0.5 μM epinephrine” value is reported as “successfully blocked the beta-adrenergic effects”. Besides, the “decrease in beating rate” value in the data set with cardiac organoids [8] (propranolol only, 0.1 μM, p<0.05) is recorded as ~ 10%. Also, the “beating rate after administration of 5 μM epinephrine” value in the data set with cardiac organoids [3] (initial incubation with propranolol 0 to 20 μM) was “dose dependent decrease in beating rate”.

In the case of `CNC[C@H](O)c1ccc(O)c(O)c1` [epinephrine], in [7] (Group 2, liver component present, 0.1 μM propranolol then 0.5 μM epinephrine), the “increase in BPM after epinephrine” value was found to be 1.25 fold. Moreover, the “response relative to control epinephrine-only response” value in [7] (Group 2, liver organoids, propranolol then epinephrine) is given as “approximately 50%”. Besides, in data set [7] (Group 2 conditions with 2D hepatocyte culture (1-2 million cells) in place of 3D liver organoids), the “restoration of the epinephrine-induced increase in beat rate” value is recorded as “failed to achieve any restoration”. Further, the “increase in beating rate” value in [7] (epinephrine only, 0.5 μM, liver component present, p<0.05) was about 30%; with cardiac organoids [8] (epinephrine only, 0.5 μM), ~ 40%. Moreover, the “increase in cardiac BPM after epinephrine” value in the data set on cardiac organoids [8] (experimental controls, no propranolol prior to epinephrine) worked out at 1.5 fold. Moreover, the “epinephrine concentration at which beat rate increase reaches a plateau” value in the data set on cardiac organoids [3] is at least 5 µM. Also, the “dose dependent increase in beat rate” value with cardiac organoids [3] (increasing epinephrine concentration) is 1 to 2 fold.

Consider `CS(=O)(=O)c1ccc(C2=C(c3ccccc3)C(=O)OC2)cc1` [Rofecoxib], for which the “Site of Primary Toxicity” value in data set [1] is given as “Heart”. Further, the “sensitivity by ATP activity, 2D cardiomyocyte cultures compared to 3D organoids and 2D C2C12 cultures” value in [6] (only at low to medium drug concentrations) was “increased sensitivity”.

On to `O=C(O)CNCP(=O)(O)O` [glyphosate], for which the ATP activity result in the data set on cardiac organoids [4] is given as “decreases in ATP activity”.

Regarding `O=C(O)COc1ccc(C(=O)c2cccs2)c(Cl)c1Cl` [Tienilic Acid], the “Site of Primary Toxicity” value in data set [1] was “Liver”. Besides, the “sensitivity by ATP activity, 3D organoids versus both 2D systems” value in [9] was “did not experience significantly different responses”.

On to `NCCc1c[nH]cn1` [histamine], for which the “fluorescent intensity of outlet aliquots (dye transfer)” value in the data set with vascular endothelium is listed as about 200 RFUs. Besides, the “resistance across endothelium layers (TEER)” value in data set [10] was “approximately 0.4 kΩ”.

`CCCCCOC(=O)Nc1nc(=O)n([C@@H]2O[C@H](C)[C@@H](O)[C@H]2O)cc1F` [capecitabine]: the “metabolism of the prodrug” value in data set [11] was “this metabolism does not occur”; in data set [11] (human, 7 days, 20 uM) it was “metabolized into the toxic drug 5-FU”; in [12] it was “this metabolism does not occur”; in data set [12] (human, 7 days, 20 μM), “metabolized into the toxic drug 5-FU”.

With `CC(=O)N[C@@H](CS)C(=O)O` [NAC, N-acetyl-L-cysteine], the “viability, LIVE/DEAD staining on day 14” value in the data set on liver organoids [5] (10 mM APAP with 20 mM N-acetyl-L-cysteine) is given as “rescued”. Besides, in the data set on liver organoids [5], the “albumin and urea output into media” value is listed as “decreases this reduction in secretion”.

On to `Cc1c(C)c2c(c(C)c1O)CCC(C)(COc1ccc(CC3SC(=O)NC3=O)cc1)O2` (centres unmarked) [Troglitazone], for which the “Site of Primary Toxicity” value in data set [1] was “Liver”. Also, in the data set with liver organoids [13], the “cell death, LIVE/DEAD” value was “increases in cell death”.

With `Nc1c(CC(=O)O)cccc1C(=O)c1ccc(Br)cc1` [Bromfenac], in data set [1], the “Site of Primary Toxicity” value is recorded as “Liver”. Further, in [9], the “sensitivity by ATP activity, 3D organoids and 2D hepatocyte cultures in comparison to 2D HepG2 cultures” value was “slightly more resistant”.

On to `COCC(=O)O[C@]1(CCN(C)CCCc2nc3ccccc3[nH]2)CCc2cc(F)ccc2[C@@H]1C(C)C` [Mibefradil], for which the “Site of Primary Toxicity” value in data set [1] is “Liver”. Further, the “sensitivity by ATP activity, 3D organoids and 2D hepatocyte cultures in comparison to 2D HepG2 cultures” value in data set [9] is listed as “more sensitive”. In addition, the “cell death, LIVE/DEAD” value in the data set with liver organoids [13] is “increases in cell death”.
